The species entered for one data set is Mus musculus. In words: Lethal dose in swiss albino mice by peroral route. To be noted: in vivo, po. In kind it is toxicity, organism-based.
The subject of the next data set is IGROV-1. In words: In vitro antitumor activity against IGROV human cancer cell line. In kind it is functional, cell-based.
A further data set has as its system WiDr. As to the kind of experiment: In vitro antitumor activity against WIDR human cancer cell line. In kind it is functional, cell-based.
A further data set concerns SK-MEL19. In words: In vitro antitumor activity against MEL 19 human cancer cell line. In kind it is functional, cell-based.

As usually defined, the LD50 is the dose at which mortality reaches 50%. Low readings indicate greater toxicity, high ones lower toxicity. Consider CARBOPLATIN [listing 1 of 2 here], for which the LD50 in the data set filed under Mus musculus is 150 mg/kg.
As for CARBOPLATIN [listing 2 of 2 here], the ID50 is 646 µM with IGROV-1, 943 µM with WiDr and 1480 µM in the data set on SK-MEL19.
In the data set listed under Mus musculus, CISPLATIN [listing 1 of 2 here] had an LD50 of 31 mg/kg.
On to CISPLATIN [listing 2 of 2 here], for which the ID50 in the data set on IGROV-1 is 75 µM; in the data set with WiDr, 450 µM; with SK-MEL19, 260 µM.
